For the first experiment, the system named is Human peripheral blood mononuclear cells (PBMC). Briefly: Mixed human lymphocyte reaction (MLR) assay. In kind it is cell-based. The conditions noted are these: immunosuppressant alone, 0.5 nM, read-out: inhibition of lymphocyte proliferation. On the procedure:
coculture of lymphocytes of different […] (MLR=mixed lymphocyte reaction): lymphocytes containing different antigens of the HLA-DR type (=allogens) activate each other non-specifically.
100 μl of those PBMC are mixed with 100 μl of irradiated PMBC (1×10^6 cells/ml) in a well of a microtiter plate. The test substances, alone or in combination, are likewise added to the PBMC. The plates are incubated for 5 days at 37° C. in a moist atmosphere which contains 5% CO2. Then 1 μCi of ^3H-thymidine is added to the cells and they are incubated under the abovementioned conditions for a further 8 hours. The cells are then collected on glass fiber filters and the incorporated radioactivity is determined using a beta counter.
Inhibition is given in percent and referred to uninhibited controls (which correspond to 0%).
Inhibition is given in percent and referred to uninhibited controls (which correspond to 0%)
`C=CC[C@@H]1/C=C(\C)C[C@H](C)C[C@H](OC)[C@H]2O[C@@](O)(C(=O)C(=O)N3CCCC[C@H]3C(=O)O[C@H](/C(C)=C/[C@@H]3CC[C@@H](O)[C@H](OC)C3)[C@H](C)[C@@H](O)CC1=O)[C@H](C)C[C@@H]2OC` [FK 506, Tacrolimus, reference compound]: the inhibition at 0.0005 µM amounted to 30%.

With `CO[C@H]1C[C@@H]2CC[C@@H](C)[C@@](O)(O2)C(=O)C(=O)N2CCCC[C@H]2C(=O)O[C@H]([C@H](C)C[C@@H]2CC[C@@H](O)[C@H](OC)C2)CC(=O)[C@H](C)/C=C(\C)[C@@H](O)[C@@H](OC)C(=O)[C@H](C)C[C@H](C)/C=C/C=C/C=C/1C` [RPM, rapamycin, reference compound], the inhibition at 0.0005 µM was 35%.

The experiment is the same for the next values; noted with them: read-out: % inhibition of proliferation (100 μM), 100 μM, referred to uninhibited controls (0%).
In the case of `CCCn1cnc2c1c(=O)n(CCCCC(C)O)c(=O)n2C` (centres unmarked) [Compound 3, 1-(5-hydroxyhexyl)-3-methyl-7-propyl-xanthine], the inhibition at 100 µM was 83%.

For the molecule `CCCCn1cnc2c1c(=O)n(CCCCC(C)(C)O)c(=O)n2C` [Compound 8, 1-(5-hydroxy-5-methylhexyl)-3-methyl-7-butylxanthine], the inhibition at 100 µM turned out to be 91%.

Turning to `CCOCn1cnc2c1c(=O)n(CCCCC(C)(C)O)c(=O)n2C` [Compound 9, 7-ethoxymethyl-1-(5-hydroxy-5-methylhexyl)-3-methylxanthine], the inhibition at 100 µM was determined as 61%.

Consider `CCCCn1cnc2c1c(=O)n(CCCCCC(C)(C)O)c(=O)n2CC` [Compound 11, 7-butyl-3-ethyl-1-(6-hydroxy-6-methylheptyl)-xanthine], for which the inhibition at 100 µM is 94%.

In the case of `Cn1c(=O)n(CCCCC(C)(C)O)c(=O)c2c1ncn2CC1CC1` [Compound 12, 7-cyclopropylmethyl-1-(5-hydroxy-5-methylhexyl)-3-methylxanthine], the inhibition at 100 µM was 85%.

In the case of `CCCCCCn1c(=O)c2c(ncn2C)n(C)c1=O` [Compound 14, 1-hexyl-3,7-dimethylxanthine], the inhibition at 100 µM is 85%.

These data come from patent US6432968B1 (Aventis Pharma Deutschland GmbH, priority 1994, dated 2002).
